Assay results from PubChem BioAssay (NCI).
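Where inhibition never reached the appropriate level, the endpoint shown equals the highest concentration tested. Otherwise, values were interpolated linearly from a five-concentration, 48-hour dose response in 96-well plates. Here, GI50 denotes the concentration required for 50% inhibition of growth. TGI denotes the concentration required for complete inhibition of growth.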

Key:
Assay in all cases: inhibition of tumour cell growth, NCI panel, 48 h
786-0 renal = system: 786-0 renal
A549 NSCLC = system: A549 NSCLC
ACHN renal = system: ACHN renal
BT-549 breast = system: BT-549 breast
CAKI-1 renal = system: CAKI-1 renal
CCRF-CEM leukemia = system: CCRF-CEM leukemia
COLO 205 colon = system: COLO 205 colon
DU-145 prostate = system: DU-145 prostate
HCC-2998 colon = system: HCC-2998 colon
HCT-116 colon = system: HCT-116 colon
HCT-15 colon = system: HCT-15 colon
HL-60(TB) leukemia = system: HL-60(TB) leukemia
HOP-62 NSCLC = system: HOP-62 NSCLC
HOP-92 NSCLC = system: HOP-92 NSCLC
HS 578T breast = system: HS 578T breast
HT29 colon = system: HT29 colon
IGROV1 ovarian = system: IGROV1 ovarian
K-562 leukemia = system: K-562 leukemia
KM12 colon = system: KM12 colon
LOX IMVI melanoma = system: LOX IMVI melanoma
MALME-3M melanoma = system: MALME-3M melanoma
MCF7 breast = system: MCF7 breast
MDA-MB-231 breast = system: MDA-MB-231 breast
MDA-MB-435 = system: MDA-MB-435
MOLT-4 leukemia = system: MOLT-4 leukemia
NCI-H226 lung = system: NCI-H226 lung
NCI-H23 lung = system: NCI-H23 lung
NCI-H460 lung = system: NCI-H460 lung
NCI-H522 lung = system: NCI-H522 lung
NCI/ADR-RES ovarian = system: NCI/ADR-RES ovarian
OVCAR-3 ovarian = system: OVCAR-3 ovarian
OVCAR-4 ovarian = system: OVCAR-4 ovarian
OVCAR-5 ovarian = system: OVCAR-5 ovarian
OVCAR-8 ovarian = system: OVCAR-8 ovarian
PC-3 prostate = system: PC-3 prostate
RPMI-8226 leukemia = system: RPMI-8226 leukemia
RXF 393 renal = system: RXF 393 renal
SF-268 CNS = system: SF-268 CNS
SF-295 CNS = system: SF-295 CNS
SF-539 CNS = system: SF-539 CNS
SK-MEL-2 melanoma = system: SK-MEL-2 melanoma
SK-MEL-28 melanoma = system: SK-MEL-28 melanoma
SK-MEL-5 melanoma = system: SK-MEL-5 melanoma
SK-OV-3 ovarian = system: SK-OV-3 ovarian
SN12C renal = system: SN12C renal
SNB-19 CNS = system: SNB-19 CNS
SNB-75 CNS = system: SNB-75 CNS
SW-620 colon = system: SW-620 colon
T-47D breast = system: T-47D breast
TK-10 renal = system: TK-10 renal
U251 CNS = system: U251 CNS
UACC-257 melanoma = system: UACC-257 melanoma
UACC-62 melanoma = system: UACC-62 melanoma
UO-31 renal = system: UO-31 renal

O=C1c2ccccc2-c2nnc(-c3ccc(Br)cc3)cc21
GI50 (786-0 renal): > 100 µM
TGI (786-0 renal): > 100 µM
GI50 (A549 NSCLC): > 100 µM
TGI (A549 NSCLC): > 100 µM
GI50 (ACHN renal): > 100 µM
TGI (ACHN renal): > 100 µM
GI50 (BT-549 breast): > 100 µM
TGI (BT-549 breast): > 100 µM
GI50 (CAKI-1 renal): > 100 µM
TGI (CAKI-1 renal): > 100 µM
GI50 (CCRF-CEM leukemia): > 100 µM
TGI (CCRF-CEM leukemia): > 100 µM
GI50 (COLO 205 colon): > 100 µM
TGI (COLO 205 colon): > 100 µM
GI50 (DU-145 prostate): > 100 µM
TGI (DU-145 prostate): > 100 µM
GI50 (HCC-2998 colon): > 100 µM
TGI (HCC-2998 colon): > 100 µM
GI50 (HCT-116 colon): > 100 µM
TGI (HCT-116 colon): > 100 µM
GI50 (HCT-15 colon): > 100 µM
TGI (HCT-15 colon): > 100 µM
GI50 (HL-60(TB) leukemia): > 100 µM
TGI (HL-60(TB) leukemia): > 100 µM
GI50 (HOP-62 NSCLC): > 100 µM
TGI (HOP-62 NSCLC): > 100 µM
GI50 (HOP-92 NSCLC): > 100 µM
TGI (HOP-92 NSCLC): > 100 µM
GI50 (HS 578T breast): > 100 µM
TGI (HS 578T breast): > 100 µM
GI50 (HT29 colon): > 100 µM
TGI (HT29 colon): > 100 µM
GI50 (IGROV1 ovarian): > 100 µM
TGI (IGROV1 ovarian): > 100 µM
GI50 (K-562 leukemia): > 100 µM
TGI (K-562 leukemia): > 100 µM
GI50 (KM12 colon): > 100 µM
TGI (KM12 colon): > 100 µM
GI50 (LOX IMVI melanoma): > 100 µM
TGI (LOX IMVI melanoma): > 100 µM
GI50 (MALME-3M melanoma): > 100 µM
TGI (MALME-3M melanoma): > 100 µM
GI50 (MCF7 breast): > 100 µM
TGI (MCF7 breast): > 100 µM
GI50 (MDA-MB-231 breast): > 100 µM
TGI (MDA-MB-231 breast): > 100 µM
GI50 (MDA-MB-435): > 100 µM
TGI (MDA-MB-435): > 100 µM
GI50 (MOLT-4 leukemia): > 100 µM
TGI (MOLT-4 leukemia): > 100 µM
GI50 (NCI-H226 lung): > 100 µM
TGI (NCI-H226 lung): > 100 µM
GI50 (NCI-H23 lung): > 100 µM
TGI (NCI-H23 lung): > 100 µM
GI50 (NCI-H460 lung): > 100 µM
TGI (NCI-H460 lung): > 100 µM
GI50 (NCI-H522 lung): > 100 µM
TGI (NCI-H522 lung): > 100 µM
GI50 (NCI/ADR-RES ovarian): > 100 µM
TGI (NCI/ADR-RES ovarian): > 100 µM
GI50 (OVCAR-3 ovarian): > 100 µM
TGI (OVCAR-3 ovarian): > 100 µM
GI50 (OVCAR-4 ovarian): > 100 µM
TGI (OVCAR-4 ovarian): > 100 µM
GI50 (OVCAR-5 ovarian): > 100 µM
TGI (OVCAR-5 ovarian): > 100 µM
GI50 (OVCAR-8 ovarian): > 100 µM
TGI (OVCAR-8 ovarian): > 100 µM
GI50 (PC-3 prostate): > 100 µM
TGI (PC-3 prostate): > 100 µM
GI50 (RPMI-8226 leukemia): > 100 µM
TGI (RPMI-8226 leukemia): > 100 µM
GI50 (RXF 393 renal): > 100 µM
TGI (RXF 393 renal): > 100 µM
GI50 (SF-268 CNS): > 100 µM
TGI (SF-268 CNS): > 100 µM
GI50 (SF-295 CNS): > 100 µM
TGI (SF-295 CNS): > 100 µM
GI50 (SF-539 CNS): > 100 µM
TGI (SF-539 CNS): > 100 µM
GI50 (SK-MEL-2 melanoma): > 100 µM
TGI (SK-MEL-2 melanoma): > 100 µM
GI50 (SK-MEL-28 melanoma): > 100 µM
TGI (SK-MEL-28 melanoma): > 100 µM
GI50 (SK-MEL-5 melanoma): > 100 µM
TGI (SK-MEL-5 melanoma): > 100 µM
GI50 (SK-OV-3 ovarian): > 100 µM
TGI (SK-OV-3 ovarian): > 100 µM
GI50 (SN12C renal): > 100 µM
TGI (SN12C renal): > 100 µM
GI50 (SNB-19 CNS): > 100 µM
TGI (SNB-19 CNS): > 100 µM
GI50 (SNB-75 CNS): > 100 µM
TGI (SNB-75 CNS): > 100 µM
GI50 (SW-620 colon): > 100 µM
TGI (SW-620 colon): > 100 µM
GI50 (T-47D breast): 48.8 µM
TGI (T-47D breast): > 100 µM
GI50 (TK-10 renal): > 100 µM
TGI (TK-10 renal): > 100 µM
GI50 (U251 CNS): > 100 µM
TGI (U251 CNS): > 100 µM
GI50 (UACC-257 melanoma): > 100 µM
TGI (UACC-257 melanoma): > 100 µM
GI50 (UACC-62 melanoma): > 100 µM
TGI (UACC-62 melanoma): > 100 µM
GI50 (UO-31 renal): > 100 µM
TGI (UO-31 renal): > 100 µM
